Experimental data taken from patent publication US8030336B2, “Nicotinamide-based kinase inhibitors” (YM Biosciences Australia Pty Ltd, priority 2002, dated 2011).

Legend:
Type in all cases: biochemical
human JAK2 = target: T1, human JAK2 (Homo sapiens, UniProt O60674); experiment: JAK2 kinase assay (ELISA or Alphascreen); details: read-out: Jak2 inhibition of enzyme activity
T1 construct: The kinase domain of human JAK2 was amplified from U937mRNA; His tag (from the pFastBac HTc vector) (N); made in house; host or cells: baculovirus; Sf9 for virus, High Five insect cells for production
From the text: The kinase domain of human JAK2 was amplified from U937mRNA using the polymerase chain reaction with the following primers: […]
JAK2 PCR products were doped into the pFastBac HTc expression vector (Gibco) via the Sal I and Not I sites. The JAK2 plasmid was than transformed into competent DH10Bac cells (Gibco), and the recombinant baculovirus produced prepared for transfection into Sf9 insect cells.
(§1) Baculovirus preparations from each of the JAK family members were infected into five liters of High Five cells (Invitrogen) grown in High Five serum free medium (Invitrogen) to a cell density of approximately 1-2×10^6 cells/ml. Cells are infected with virus at a MOI of 0.8-3.0. Cells were harvested and lysed. JAK kinase domains were purified by affinity chromatography on a Probond (Invitrogen) nickel chelate affinity column.
(§2) Kinase assays were performed in a 96 well capture-based ELISA assay or in 384 well Optiplates (Packard) using an Alphascreen Protein Tyrosine Kinase kit. In either case using approximately 1.5 μg of affinity purified PTK domain in the presence of 50 mM HEPES, pH 7.5, 10 mM MgCl2, 150 mM NaCl and 10 μM-1 mM ATP. The biotinylated substrate biotin-EGPWLEEEEEAYGWMDF-NH2 (SEQ ID NO:9) (final concentration 5 μM) was used as substrate. In the ELISA assay tyrosine phosphorylation was quantitated following transfer to an avidin coated ELISA plate using peroxidase-linked anti-phosphotyrosine antibody PY20. In the Alphascreen assay, Alphascreen phosphotyrosine acceptor beads followed by streptavidin donor beads were added under subdued light. The ELISA plates were read on a BMG Fluorostar, the Alphascreen plates were read on a Packard Fusion Alpha. Inhibitors were added to the assays fifteen minutes prior to the addition of ATP. Inhibitors were added in aqueous […] concentrations never exceeding 1%.

abl = target: T2, abl (Homo sapiens, UniProt P00519); experiment: abl kinase assay (ELISA or Alphascreen); details: read-out: abl inhibition of enzyme activity
T2 sequence (P00519 242-493 limits assumed): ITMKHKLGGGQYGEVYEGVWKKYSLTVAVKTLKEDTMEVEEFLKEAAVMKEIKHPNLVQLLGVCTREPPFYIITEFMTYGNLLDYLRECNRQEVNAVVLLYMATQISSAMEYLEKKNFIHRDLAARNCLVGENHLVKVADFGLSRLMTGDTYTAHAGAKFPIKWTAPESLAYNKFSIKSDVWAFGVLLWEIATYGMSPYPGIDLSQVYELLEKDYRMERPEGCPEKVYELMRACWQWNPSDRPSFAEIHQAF
Protocol: as §2

fes = fes (Homo sapiens, UniProt P07332); experiment: fes kinase assay (ELISA or Alphascreen); details: read-out: fes inhibition of enzyme activity
Protocol: as §2

Zap70 = target: T3, Zap70 (Homo sapiens, UniProt P43403); experiment: Zap70 kinase assay (ELISA or Alphascreen); details: read-out: Zap70 inhibition of enzyme activity
T3 sequence (P43403 338-600 limits assumed): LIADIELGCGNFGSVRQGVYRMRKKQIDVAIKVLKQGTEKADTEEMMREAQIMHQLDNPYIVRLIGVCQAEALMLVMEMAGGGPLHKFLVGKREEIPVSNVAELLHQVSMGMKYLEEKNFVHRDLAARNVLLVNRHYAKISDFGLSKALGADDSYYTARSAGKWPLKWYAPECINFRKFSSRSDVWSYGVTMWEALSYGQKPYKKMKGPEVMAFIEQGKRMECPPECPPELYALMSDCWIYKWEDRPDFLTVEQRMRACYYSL
Protocol: as §2

fms = target: T4, fms (Homo sapiens, UniProt P07333); experiment: fms kinase assay (ELISA or Alphascreen); details: read-out: fms inhibition of enzyme activity
T4 sequence (P07333 582-910 limits assumed): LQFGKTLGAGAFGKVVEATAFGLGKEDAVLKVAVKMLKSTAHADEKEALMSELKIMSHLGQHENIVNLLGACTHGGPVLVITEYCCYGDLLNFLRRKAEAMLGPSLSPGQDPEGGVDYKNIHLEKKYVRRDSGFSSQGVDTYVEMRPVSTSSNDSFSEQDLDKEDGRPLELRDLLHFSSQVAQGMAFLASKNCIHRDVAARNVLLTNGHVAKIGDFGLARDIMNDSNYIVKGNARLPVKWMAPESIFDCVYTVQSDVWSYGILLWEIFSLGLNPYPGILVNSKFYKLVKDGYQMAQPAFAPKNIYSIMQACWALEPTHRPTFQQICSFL
Protocol: as §2

human JAK3 = target: T5, human JAK3 (Homo sapiens, UniProt P52333); experiment: JAK3 kinase assay (ELISA or Alphascreen); details: read-out: Jak3 inhibition of enzyme activity
T5 construct: The kinase domain of human JAK3 was amplified from U937mRNA; His tag (from the pFastBac HTb vector) (N); made in house; host or cells: baculovirus; Sf9 for virus, High Five insect cells for production
From the text: The kinase domain of human JAK3 was amplified from U937mRNA using the polymerase chain reaction with the following primers: […]
JAK3 PCR products were cloned into the pFastBac HTb expression vector (Gibco) via the Xho I and Kpn I sites. The JAK3 plasmid was then transformed into competent DH10Bac cells (Gibco), and the recombinant baculovirus produced prepared for transfection into Sf9 insect cells.
as §1, §2

T5 sequence (P52333 822-1111 limits assumed): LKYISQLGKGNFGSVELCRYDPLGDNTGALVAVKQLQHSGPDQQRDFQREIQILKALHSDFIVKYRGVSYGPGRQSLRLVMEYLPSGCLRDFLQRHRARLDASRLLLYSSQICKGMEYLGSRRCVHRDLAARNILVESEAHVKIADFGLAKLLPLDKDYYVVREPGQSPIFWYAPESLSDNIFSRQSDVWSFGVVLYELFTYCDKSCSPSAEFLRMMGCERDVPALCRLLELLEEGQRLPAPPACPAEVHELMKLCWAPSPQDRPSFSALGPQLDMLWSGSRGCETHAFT
T1 sequence (O60674 849-1124 limits assumed): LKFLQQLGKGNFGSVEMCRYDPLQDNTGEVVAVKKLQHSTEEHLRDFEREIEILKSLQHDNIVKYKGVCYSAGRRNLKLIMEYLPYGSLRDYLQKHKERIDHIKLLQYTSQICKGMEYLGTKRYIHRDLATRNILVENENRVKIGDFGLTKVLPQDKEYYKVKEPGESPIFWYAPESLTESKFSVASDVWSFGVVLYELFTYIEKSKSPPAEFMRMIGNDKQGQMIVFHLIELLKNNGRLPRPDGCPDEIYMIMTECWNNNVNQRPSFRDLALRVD
Sequence of fes (P07332 561-822 limits assumed, species assumed): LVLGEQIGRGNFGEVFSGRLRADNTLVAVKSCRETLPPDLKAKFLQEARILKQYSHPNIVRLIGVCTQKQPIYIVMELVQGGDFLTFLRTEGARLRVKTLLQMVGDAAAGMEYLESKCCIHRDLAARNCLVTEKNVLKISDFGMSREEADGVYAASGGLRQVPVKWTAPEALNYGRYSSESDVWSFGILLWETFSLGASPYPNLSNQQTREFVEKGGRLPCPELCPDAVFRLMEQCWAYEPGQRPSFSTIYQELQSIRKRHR

| Structure (SMILES) | inhibition at 10 µM (human JAK2) [%] | inhibition at 10 µM (abl) [%] | inhibition at 10 µM (fes) [%] | inhibition at 10 µM (Zap70) [%] | inhibition at 10 µM (fms) [%] | inhibition at 10 µM (human JAK3) [%] |
| --- | --- | --- | --- | --- | --- | --- |
| COc1cc(CNC(=O)c2cncc(-c3ccc(O)cc3)c2)cc(OC)c1 | < 50 | < 50 | < 50 | < 50 | < 50 | < 50 |
| Cc1ccc(F)cc1NC(=O)c1cncc(-c2ccc(O)cc2)c1 | < 50 | ≥ 50 | < 50 | < 50 | < 50 | < 50 |
| Cc1cc(-c2cncc(C(=O)N[C@@H](C)c3ccccc3)c2)cc(C)c1O | < 50 | < 50 | < 50 | < 50 | < 50 | – |
| Cc1ccc(CNC(=O)c2cncc(-c3cc(C)c(O)c(C)c3)c2)cc1 | < 50 | < 50 | < 50 | < 50 | < 50 | < 50 |
| Cc1ccc(C)c(CNC(=O)c2cncc(-c3cc(C)c(O)c(C)c3)c2)c1 | < 50 | ≥ 50 | ≥ 50 | < 50 | ≥ 50 | < 50 |
| COc1ccc(NC(=O)c2cncc(-c3cc(C)c(O)c(C)c3)c2)c(OC)c1 | < 50 | < 50 | < 50 | < 50 | – | < 50 |
| COc1cc(-c2cncc(C(=O)NC(CO)C(C)C)c2)c(Cl)c(OC)c1OC (stereo not shown) | < 50 | < 50 | – | < 50 | < 50 | < 50 |
| COc1cc(-c2cncc(C(=O)NCc3ccc(C)cc3)c2)c(Cl)c(OC)c1OC | < 50 | < 50 | < 50 | < 50 | – | < 50 |
| COc1ccc(NC(=O)c2cncc(-c3cc(OC)c(OC)c(OC)c3Cl)c2)c(OC)c1 | < 50 | < 50 | < 50 | < 50 | < 50 | < 50 |
| O=C(NCc1ccc(Cl)c(Cl)c1)c1cncc(-c2ccc3c(c2)OCO3)c1 | < 50 | – | < 50 | < 50 | < 50 | < 50 |
| O=C(Nc1ccccc1)c1cncc(-c2ccc3c(c2)OCO3)c1 | < 50 | < 50 | < 50 | < 50 | < 50 | < 50 |
| Cc1ccc(C)c(NC(=O)c2cncc(-c3ccc4c(c3)OCO4)c2)c1 | < 50 | < 50 | < 50 | < 50 | < 50 | < 50 |
| O=C(NCCO)c1cncc(-c2cccs2)c1 | < 50 | < 50 | < 50 | < 50 | < 50 | < 50 |
| Cc1ccc(C)c(NC(=O)c2cncc(-c3cccs3)c2)c1 | < 50 | < 50 | ≥ 50 | < 50 | < 50 | < 50 |
| Cc1cc(F)ccc1NC(=O)c1cncc(-c2cccs2)c1 | – | < 50 | < 50 | < 50 | < 50 | < 50 |
| Cc1ccccc1NC(=O)c1cncc(-c2cccnc2)c1 | < 50 | < 50 | < 50 | < 50 | < 50 | < 50 |
| CN1CCN(c2ccc(CNC(=O)c3cncc(-c4ccc(F)cc4)c3)cc2)CC1 | < 50 | – | < 50 | < 50 | < 50 | < 50 |
| O=C(NCc1ccc(F)cc1)c1cncc(-c2ccc(F)cc2)c1 | ≥ 50 | < 50 | < 50 | < 50 | < 50 | < 50 |
| O=C(NCc1ccncc1)c1cncc(-c2ccc(F)cc2)c1 | < 50 | < 50 | < 50 | < 50 | < 50 | < 50 |
| CN1CCN(c2ccc(NC(=O)c3cncc(-c4ccc(F)cc4)c3)cc2)CC1 | < 50 | < 50 | – | < 50 | < 50 | < 50 |
| O=C(NCCCn1ccnc1)c1cncc(-c2ccc(F)cc2)c1 | < 50 | – | < 50 | < 50 | < 50 | < 50 |
| COc1ccc(NC(=O)c2cncc(-c3ccc(F)cc3)c2)c(OC)c1 | < 50 | < 50 | < 50 | < 50 | < 50 | < 50 |
| Cc1ccccc1NC(=O)c1cncc(-c2ccc(F)cc2)c1 | < 50 | < 50 | < 50 | < 50 | – | < 50 |
| C[C@H](NC(=O)c1cncc(-c2cccnc2)c1)c1ccccc1 | < 50 | – | < 50 | < 50 | < 50 | < 50 |
| O=C(NCc1ccco1)c1cncc(-c2cccnc2)c1 | < 50 | – | < 50 | < 50 | < 50 | < 50 |
| C[C@@H](NC(=O)c1cncc(-c2ccc(F)cc2)c1)c1ccccc1 | < 50 | – | < 50 | < 50 | < 50 | < 50 |
| COc1cccc(-c2cncc(C(=O)Nc3cc(F)ccc3C)c2)c1 | < 50 | < 50 | < 50 | ≥ 50 | – | < 50 |
| COc1cccc(-c2cncc(C(=O)Nc3ccccc3C)c2)c1 | < 50 | < 50 | < 50 | < 50 | < 50 | < 50 |
